Experiments:
purple nutsedge = assay: Test B pre/postemergence purple nutsedge; type: in vivo, Cyperus rotundus
Procedure, shortened: (§1)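 Test chemicals in a non-phytotoxic solvent mixture with surfactant were sprayed preemergence onto planted seeds and postemergence onto plants 2 to 18 cm tall (1- to 4-leaf stage). After twelve to sixteen days in a greenhouse, injury was visually rated against untreated controls from 0 (no effect) to 10 (complete control).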

sugar beet = assay: Test B pre/postemergence sugar beet; type: in vivo, Beta vulgaris
Procedure, shortened: as §1

bedstraw = assay: Test B pre/postemergence bedstraw; type: in vivo, Galium aparine; conditions: Preemergence
Procedure, shortened: as §1

cocklebur = assay: Test B pre/postemergence cocklebur; type: in vivo, Xanthium strumarium
Procedure, shortened: as §1

surinam grass = assay: Test B pre/postemergence surinam grass; type: in vivo, Brachiaria decumbens
Procedure, shortened: as §1

wild oat = assay: Test B pre/postemergence wild oat; type: in vivo, Avena fatua
Procedure, shortened: as §1

rape = assay: Test B pre/postemergence rape; type: in vivo, Brassica napus
Procedure, shortened: as §1

giant foxtail = assay: Test B pre/postemergence giant foxtail; type: in vivo, Setaria faberii
Procedure, shortened: as §1

soybean = assay: Test B pre/postemergence soybean; type: in vivo, Glycine max
Procedure, shortened: as §1

wheat = assay: Test B pre/postemergence wheat; type: in vivo, Triticum aestivum
Procedure, shortened: as §1

blackgrass = assay: Test B pre/postemergence blackgrass; type: in vivo, Alopecurus myosuroides
Procedure, shortened: as §1

velvetleaf = assay: Test B pre/postemergence velvetleaf; type: in vivo, Abutilon theophrasti
Procedure, shortened: as §1

corn = assay: Test B pre/postemergence corn; type: in vivo, Zea mays
Procedure, shortened: as §1

morningglory = assay: Test B pre/postemergence morningglory; type: in vivo, Ipomoea hederacea
Procedure, shortened: as §1

crabgrass = assay: Test B pre/postemergence crabgrass; type: in vivo, Digitaria sanguinalis
Procedure, shortened: as §1

pigweed = assay: Test B pre/postemergence pigweed; type: in vivo, Amaranthus retroflexus
Procedure, shortened: as §1

[1] = Preemergence, Rate 62 g/ha, scale of 0 to 10 where 0 is no effect and 10 is complete control
[2] = Preemergence, Rate 125 g/ha, scale of 0 to 10 where 0 is no effect and 10 is complete control
[3] = Preemergence, Rate 500 g/ha, scale of 0 to 10 where 0 is no effect and 10 is complete control
[4] = Rate 62 g/ha, scale of 0 to 10 where 0 is no effect and 10 is complete control
[5] = Rate 125 g/ha, scale of 0 to 10 where 0 is no effect and 10 is complete control
[6] = Rate 500 g/ha, scale of 0 to 10 where 0 is no effect and 10 is complete control
[7] = Preemergence, Rate 250 g/ha, scale 0 to 10 (0 no effect, 10 complete control)
[8] = Postemergence, Rate 62 g/ha, scale 0 to 10, 0 is no effect, 10 is complete control
[9] = Postemergence, Rate 125 g/ha, scale of 0 to 10 where 0 is no effect and 10 is complete control
[10] = Preemergence, Rate 250 g/ha, scale 0 (no effect) to 10 (complete control)
[11] = Rate 250 g/ha, Postemergence, scale 0 to 10, 0 is no effect, 10 is complete control
[12] = Rate 500 g/ha, Postemergence, scale 0 to 10, 0 is no effect, 10 is complete control

CCn1ncc(Cn2c(=O)on(C(=O)N(c3ccc(F)cc3F)C(C)C)c2=O)c1Cl [Compound 682]
0: Nutsedge plant response rating (purple nutsedge; [1]) | Plant response rating, Nutsedge (purple nutsedge; [2]) | Plant response rating, Nutsedge (purple nutsedge; [3]) | Sugarbeets plant response rating (sugar beet; [1]) | Plant response rating, Sugarbeets (sugar beet; [2]) | Bedstraw plant response rating (bedstraw; [4]) | Plant response rating, Bedstraw (bedstraw; [5]) | Plant response rating, Bedstraw (bedstraw; Rate 250 g/ha, scale 0 to 10 (0 no effect, 10 complete control)) | Plant response rating, Bedstraw (bedstraw; [6]) | Cocklebur plant response rating (cocklebur; [1]) | Plant response rating, Cocklebur (cocklebur; [2]) | Plant response rating, Cocklebur (cocklebur; [7]) | Plant response rating, Cocklebur (cocklebur; [3]) | Wild oats plant response rating (wild oat; [1]) | Plant response rating, Wild oats (wild oat; [2]) | Rape plant response rating (rape; [1]) | Plant response rating, Rape (rape; [2]) | Soybean plant response rating (soybean; [1]) | Plant response rating, Soybean (soybean; [2]) | Plant response rating, Soybean (soybean; [3]) | Wheat plant response rating (wheat; [1]) | Plant response rating, Wheat (wheat; [2]) | Plant response rating, Wheat (wheat; [3]) | Velvetleaf plant response rating (velvetleaf; [1]) | Plant response rating, Velvetleaf (velvetleaf; [2]) | Plant response rating, Velvetleaf (velvetleaf; [3]) | Corn plant response rating (corn; [1]) | Plant response rating, Corn (corn; [2]) | Plant response rating, Corn (corn; [7]) | Plant response rating, Corn (corn; [3]) | Morningglory plant response rating (morningglory; [1]) | Plant response rating, Morningglory (morningglory; [2])
4: Redroot pigweed plant response rating (pigweed; [1]) | Plant response rating, Redroot pigweed (pigweed; [2])
2: B. signalgrass plant response rating (surinam grass; [1])
9: Giant foxtail plant response rating (giant foxtail; [1]) | Plant response rating, Blackgrass (blackgrass; [3]) | Plant response rating, Crabgrass (crabgrass; [2]) | Plant response rating, Crabgrass (crabgrass; [7]) | Plant response rating, Crabgrass (crabgrass; [3])
3: Blackgrass plant response rating (blackgrass; [1]) | Plant response rating, Morningglory (morningglory; [3])
10: Plant response rating, Giant foxtail (giant foxtail; [2]) | Plant response rating, Giant foxtail (giant foxtail; [3])
6: Plant response rating, B. signalgrass (surinam grass; [2])
5: Plant response rating, Blackgrass (blackgrass; [2]) | Crabgrass plant response rating (crabgrass; [1])
8: Plant response rating, B. signalgrass (surinam grass; [3]) | Plant response rating, Wild oats (wild oat; [3]) | Plant response rating, Blackgrass (blackgrass; [7])
7: Plant response rating, Sugarbeets (sugar beet; [3]) | Plant response rating, B. signalgrass (surinam grass; [7]) | Plant response rating, Rape (rape; [3]) | Plant response rating, Redroot pigweed (pigweed; [3])

CC(C)N(C(=O)n1oc(=O)n(CCCCl)c1=O)c1ccc(F)cc1 [Compound 713]
5: Sugarbeets plant response rating (sugar beet; [12]) | B. signalgrass plant response rating (surinam grass; [1]) | B. signalgrass plant response rating (surinam grass; [11]) | Plant response rating, Wild oats (wild oat; [2]) | Wild oats plant response rating (wild oat; [12]) | Soybean plant response rating (soybean; [11]) | Soybean plant response rating (soybean; [12]) | Blackgrass plant response rating (blackgrass; [1]) | Plant response rating, Velvetleaf (velvetleaf; [2]) | Velvetleaf plant response rating (velvetleaf; [10]) | Corn plant response rating (corn; [12])
0: Plant response rating, Nutsedge (purple nutsedge; [8]) | Nutsedge plant response rating (purple nutsedge; [9]) | Nutsedge plant response rating (purple nutsedge; [1]) | Plant response rating, Nutsedge (purple nutsedge; [2]) | Nutsedge plant response rating (purple nutsedge; [10]) | Nutsedge plant response rating (purple nutsedge; [11]) | Plant response rating, Sugarbeets (sugar beet; [8]) | Sugarbeets plant response rating (sugar beet; [9]) | Sugarbeets plant response rating (sugar beet; [11]) | Bedstraw plant response rating (bedstraw; [4]) | Plant response rating, Bedstraw (bedstraw; [5]) | Cocklebur plant response rating (cocklebur; [1]) | Plant response rating, Cocklebur (cocklebur; [2]) | Cocklebur plant response rating (cocklebur; [10]) | Plant response rating, Cocklebur (cocklebur; [3]) | Plant response rating, B. signalgrass (surinam grass; [8]) | Plant response rating, Wild oats (wild oat; [8]) | Wild oats plant response rating (wild oat; [9]) | Plant response rating, Rape (rape; [8]) | Rape plant response rating (rape; [9]) | Soybean plant response rating (soybean; [1]) | Plant response rating, Soybean (soybean; [2]) | Soybean plant response rating (soybean; [10]) | Plant response rating, Wheat (wheat; [8]) | Wheat plant response rating (wheat; [1]) | Plant response rating, Wheat (wheat; [2]) | Plant response rating, Corn (corn; [8]) | Corn plant response rating (corn; [9]) | Corn plant response rating (corn; [1]) | Plant response rating, Corn (corn; [2]) | Corn plant response rating (corn; [10]) | Corn plant response rating (corn; [11]) | Morningglory plant response rating (morningglory; [1]) | Plant response rating, Morningglory (morningglory; [2]) | Morningglory plant response rating (morningglory; [10])
3: Nutsedge plant response rating (purple nutsedge; [12]) | Sugarbeets plant response rating (sugar beet; [1]) | Cocklebur plant response rating (cocklebur; [11]) | B. signalgrass plant response rating (surinam grass; [9]) | Plant response rating, Soybean (soybean; [8]) | Blackgrass plant response rating (blackgrass; [9]) | Plant response rating, Velvetleaf (velvetleaf; [8]) | Morningglory plant response rating (morningglory; [9])
2: Bedstraw plant response rating (bedstraw; Rate 250 g/ha, scale 0 (no effect) to 10 (complete control)) | Cocklebur plant response rating (cocklebur; [9]) | Wild oats plant response rating (wild oat; [1]) | Wheat plant response rating (wheat; [11]) | Wheat plant response rating (wheat; [12]) | Velvetleaf plant response rating (velvetleaf; [1]) | Plant response rating, Morningglory (morningglory; [8]) | Plant response rating, Crabgrass (crabgrass; [8]) | Plant response rating, Redroot pigweed (pigweed; [8])
6: Plant response rating, Bedstraw (bedstraw; [6]) | Cocklebur plant response rating (cocklebur; [12]) | Rape plant response rating (rape; [11]) | Rape plant response rating (rape; [12]) | Velvetleaf plant response rating (velvetleaf; [9]) | Velvetleaf plant response rating (velvetleaf; [11]) | Redroot pigweed plant response rating (pigweed; [1])
9: Plant response rating, B. signalgrass (surinam grass; [3]) | Giant foxtail plant response rating (giant foxtail; [9]) | Giant foxtail plant response rating (giant foxtail; [11]) | Giant foxtail plant response rating (giant foxtail; [12]) | Blackgrass plant response rating (blackgrass; [10]) | Plant response rating, Blackgrass (blackgrass; [3]) | Crabgrass plant response rating (crabgrass; [9]) | Crabgrass plant response rating (crabgrass; [11]) | Crabgrass plant response rating (crabgrass; [12]) | Redroot pigweed plant response rating (pigweed; [11]) | Redroot pigweed plant response rating (pigweed; [12])
7: Sugarbeets plant response rating (sugar beet; [10]) | Plant response rating, B. signalgrass (surinam grass; [2]) | B. signalgrass plant response rating (surinam grass; [12]) | Blackgrass plant response rating (blackgrass; [11]) | Blackgrass plant response rating (blackgrass; [12]) | Velvetleaf plant response rating (velvetleaf; [12]) | Morningglory plant response rating (morningglory; [11]) | Plant response rating, Redroot pigweed (pigweed; [2])
10: Giant foxtail plant response rating (giant foxtail; [1]) | Plant response rating, Giant foxtail (giant foxtail; [2]) | Giant foxtail plant response rating (giant foxtail; [10]) | Morningglory plant response rating (morningglory; [12]) | Crabgrass plant response rating (crabgrass; [1]) | Plant response rating, Crabgrass (crabgrass; [2]) | Crabgrass plant response rating (crabgrass; [10])
1: Plant response rating, Cocklebur (cocklebur; [8]) | Wild oats plant response rating (wild oat; [11]) | Wheat plant response rating (wheat; [9]) | Wheat plant response rating (wheat; [10]) | Plant response rating, Blackgrass (blackgrass; [8])
4: Plant response rating, Sugarbeets (sugar beet; [2]) | Rape plant response rating (rape; [1]) | Plant response rating, Rape (rape; [2]) | Plant response rating, Giant foxtail (giant foxtail; [8]) | Soybean plant response rating (soybean; [9])
8: B. signalgrass plant response rating (surinam grass; [10]) | Wild oats plant response rating (wild oat; [10]) | Rape plant response rating (rape; [10]) | Plant response rating, Blackgrass (blackgrass; [2]) | Redroot pigweed plant response rating (pigweed; [10])
